Measured values from patent publication US12465614B2, “Budesonide 21-phosphate salts and pharmaceutical compositions containing the same” (GENETIC S.P.A., priority 2020, dated 2025).

How the values were obtained:
Type in all cases: in vivo
[1] = test system: Bradykinin acetate (BK)-induced skin edema in mice; test: Cutaneous edema: BK-induced plasma extravasation, Evans blue method (Experimental Groups IV)
Protocol: Male C57Bl/6 SPF mice (25±2 g, 6-week-old) were purchased from the animal house facilities at the São Paulo School of Medicine (Federal University of São Paulo, Brazil). They were group-housed in a temperature-controlled room at 22° C. with a 12/12-hour light/dark cycle, had free access to food and water and were allowed to acclimate to our local facility for one week before the start of the experimental procedures. The study agrees with the Ethical Principles for Animal Research established by the Brazilian College for Animal Experimentation (COBEA). According to the internal laboratory rules, euthanasia is performed if severe distress related to the test agents developed during the experiment. […] The vehicle for dissolution of the compounds was sterile saline solution (0.9% NaCl) containing 12.5% DMSO (Sigma Chemical Co., St. Louis, MO). The compound solutions were prepared at concentrations such that the administered dose per kg of body weight results from the intraperitoneal (i.p.) administration of 10 ml/kg of each of the solutions. Bradykinin acetate (BK; cat. B3259, Sigma Chemical Co., St. Louis, MO) and compound 48/80 (C48/80; cat. C2313, Sigma Chemical Co., St. […] Skin edema was assessed in mice according to the method previously described by Costa et al. (2006) and Yshii et al (2009). The mice were anesthetized with urethane (25% w/v, 10 ml/kg, i.p.), had their dorsal skin shaved, and thereafter i.p. treated with the vehicle/test compounds. Fifty-five minutes later, a volume of 100 μL of Evans blue dye solution (0.25% in sterile saline) was intravenously (i.v.) injected via the tail vein. Five minutes later, the BK and C48/80 were intradermally (i.d.) injected into the dorsal skin at a fixed volume of 50 μl using a randomized scheme. The same volume of Tyrode solution 50 μl was injected as a control. Thirty minutes later, a 1 ml blood sample was obtained via cardiac puncture and the mice were killed by urethane overdose followed by cervical dislocation. The blood samples were centrifuged at 6,000 g for 4 min to obtain the plasma. The dorsal skin was removed, and the injected sites were punched out using an 8 mm diameter cork borer. […] The dye was extracted from each piece of skin and plasma (100 μl) samples using formamide, and the absorbance of the resulting solutions was measured at 620 nm. The plasma extravasation due to each agent (expressed in μl/site) was calculated as the ratio between the absorbance of each respective skin piece, corrected by the blank value and plasma sample solutions, properly adjusted by the dilution factors. To homogenate data due to the variability of different group of animals (inter-group variations), edema data are expressed as the fold-change response relative to the mean Tyrode (control) response of each experiment.

[2] = test system: OVA-sensitized mice; conditions: 1 mg/Kg i.p. before each OVA exposure; female Balb/c; vs OVA group; FIG. 10A
[3] = test system: mice with OVA-induced allergic asthma; test: BAL fluid cell counts (Experimental Groups II)
Protocol: Male Balb/c SPF mice (25*2 g, 6-week-old) were purchased from the animal house facilities at the São Paulo School of Medicine (Federal University of São Paulo, Brazil). They were group-housed in a temperature-controlled room at 22° C. with a 12/12-hour light/dark cycle and allowed free access to food and water. The study is in agreement with the Ethical Principles for Animal Research established by the Brazilian College for Animal Experimentation (COBEA). According to the internal laboratory rules, euthanasia is performed if severe distress related to the test agents developed during the experiment. […] The compounds were dissolved in DMSO (Sigma Chemical Co., St. Louis, MO) at concentrations at which the determined dose per animal results from the intraperitoneal administration of 100 μl of solution (1:10 DMSO) and intra-nasal (i.n.) administration of 10 μl/animal (5 μl/nostril) of the solutions. Mice were sensitized with two subcutaneous injections of 0.4 ml of OVA/Al(OH)3, with an interval of 7 days (Sham animals received the Al(OH)3 suspension in PBS with no OVA). Seven days after the second sensitization (i.e., 3rd week), the animals were nebulized twice a week with the 1% OVA solution (Sham and untreated OVA groups were nebulized with PBS) during 20 minutes for the next 2 weeks. Sixty minutes before the challenges (OVA nebulization) and daily during the next 4 weeks, mice were intra-nasally treated (10 μl/animal as 5 μl/nostril) with the respective compounds/vehicle. After Penh evaluation, the mice were anesthetized with inhaled isofluorane (5% v/v in O2) and blood samples were collected from the descending abdominal aorta. The mice were then euthanized by exsanguination (blood samples were collected from each animal for leukocyte cell counting), and bronchoalveolar lavage (BAL) was performed by exposing and cannulating the trachea with a polyethylene tube (1 mm outer diameter) connected to a syringe. The lungs were washed by flushing 300 μL of heparin-containing PBS solution (20 Ul/mL). The retrieved BAL lavage aliquots were obtained, and the same procedure was repeated four additional times. The samples were submitted to centrifugation (1000 g for 10 min) and the cell pellet was resuspended in 200 μL of PBS solution. Total cell counts were determined using a Neubauer chamber, and differential counting was carried out in cytospin (Fanem Mod 2400; São Paulo, Brazil) preparations stained with May-Grünwald dye. Leukocytes were classified based on normal morphological criteria.

[4] = 0.70 μmol/kg i.p. (0.30 mg/kg Bud, 0.36 mg/kg Bud 21-P)
[5] = 2.32 μmol/kg i.p. (1.0 mg/kg Bud, 1.2 mg/kg Bud 21-P), 60 min before i.d. BK, measured 30 min after

CCCC1OC2CC3C4CCC5=CC(=O)C=CC5(C)C4C(O)CC3(C)C2(C(=O)CO)O1 (stereo not drawn) [Bud, 11β,21-dihydroxy-16α,17α-(butylidenebis(oxy))pregna-1,4-diene-3.20-dione]
BK-induced plasma extravasation [1, 4]: ineffective
BK-induced plasma extravasation [1, 5]: abolished BK-induced response

CCCC1OC2CC3C4CCC5=CC(=O)C=CC5(C)C4C(O)CC3(C)C2(C(=O)COP(=O)(O)O)O1 (centres unmarked) [B, Budesonide 21-phosphate]
bronchial hyperreactivity (increased response of isolated bronchi to carbachol) [2]: did not significantly affect the increased response of carbachol
OVA-induced increase of BAL macrophages ([3]; 3 nmol/animal i.n.): abolished the OVA-induced increase of BAL macrophages
total leukocytes in BAL fluid ([3]; 3 nmol/animal i.n., vs untreated OVA group): significantly reduced
eosinophils in BAL samples ([3]; i.n., all treatments: FB 0.3, 1.0, 3.0 nmol/animal, F and B 3.0 nmol/animal): significantly controlled
BK-induced plasma extravasation [1, 4]: significantly reduced the BK response
BK-induced plasma extravasation [1, 5]: abolished BK-induced response
